Consider one compound from publication PMC8599534, “Isoprenylated Flavonoids as Cav3.1 Low Voltage-Gated Ca^2+ Channel Inhibitors from Salvia digitaloides” (Natural Products and Bioprospecting, 2021).

The target of this test is T1, Cav3.1 low voltage-gated Ca^2+ channel (Homo sapiens, UniProt O43497).
T1 construct: gene CACNA1G
In words: electrophysiology: peak-current inhibition in HEK […] cells expressing human Cav3.[…]. It is filed as cell-based.

For orientation: IC50 means the concentration at which inhibition is half-maximal. Lower therefore signals higher potency.

T1 sequence (O43497 whole entry): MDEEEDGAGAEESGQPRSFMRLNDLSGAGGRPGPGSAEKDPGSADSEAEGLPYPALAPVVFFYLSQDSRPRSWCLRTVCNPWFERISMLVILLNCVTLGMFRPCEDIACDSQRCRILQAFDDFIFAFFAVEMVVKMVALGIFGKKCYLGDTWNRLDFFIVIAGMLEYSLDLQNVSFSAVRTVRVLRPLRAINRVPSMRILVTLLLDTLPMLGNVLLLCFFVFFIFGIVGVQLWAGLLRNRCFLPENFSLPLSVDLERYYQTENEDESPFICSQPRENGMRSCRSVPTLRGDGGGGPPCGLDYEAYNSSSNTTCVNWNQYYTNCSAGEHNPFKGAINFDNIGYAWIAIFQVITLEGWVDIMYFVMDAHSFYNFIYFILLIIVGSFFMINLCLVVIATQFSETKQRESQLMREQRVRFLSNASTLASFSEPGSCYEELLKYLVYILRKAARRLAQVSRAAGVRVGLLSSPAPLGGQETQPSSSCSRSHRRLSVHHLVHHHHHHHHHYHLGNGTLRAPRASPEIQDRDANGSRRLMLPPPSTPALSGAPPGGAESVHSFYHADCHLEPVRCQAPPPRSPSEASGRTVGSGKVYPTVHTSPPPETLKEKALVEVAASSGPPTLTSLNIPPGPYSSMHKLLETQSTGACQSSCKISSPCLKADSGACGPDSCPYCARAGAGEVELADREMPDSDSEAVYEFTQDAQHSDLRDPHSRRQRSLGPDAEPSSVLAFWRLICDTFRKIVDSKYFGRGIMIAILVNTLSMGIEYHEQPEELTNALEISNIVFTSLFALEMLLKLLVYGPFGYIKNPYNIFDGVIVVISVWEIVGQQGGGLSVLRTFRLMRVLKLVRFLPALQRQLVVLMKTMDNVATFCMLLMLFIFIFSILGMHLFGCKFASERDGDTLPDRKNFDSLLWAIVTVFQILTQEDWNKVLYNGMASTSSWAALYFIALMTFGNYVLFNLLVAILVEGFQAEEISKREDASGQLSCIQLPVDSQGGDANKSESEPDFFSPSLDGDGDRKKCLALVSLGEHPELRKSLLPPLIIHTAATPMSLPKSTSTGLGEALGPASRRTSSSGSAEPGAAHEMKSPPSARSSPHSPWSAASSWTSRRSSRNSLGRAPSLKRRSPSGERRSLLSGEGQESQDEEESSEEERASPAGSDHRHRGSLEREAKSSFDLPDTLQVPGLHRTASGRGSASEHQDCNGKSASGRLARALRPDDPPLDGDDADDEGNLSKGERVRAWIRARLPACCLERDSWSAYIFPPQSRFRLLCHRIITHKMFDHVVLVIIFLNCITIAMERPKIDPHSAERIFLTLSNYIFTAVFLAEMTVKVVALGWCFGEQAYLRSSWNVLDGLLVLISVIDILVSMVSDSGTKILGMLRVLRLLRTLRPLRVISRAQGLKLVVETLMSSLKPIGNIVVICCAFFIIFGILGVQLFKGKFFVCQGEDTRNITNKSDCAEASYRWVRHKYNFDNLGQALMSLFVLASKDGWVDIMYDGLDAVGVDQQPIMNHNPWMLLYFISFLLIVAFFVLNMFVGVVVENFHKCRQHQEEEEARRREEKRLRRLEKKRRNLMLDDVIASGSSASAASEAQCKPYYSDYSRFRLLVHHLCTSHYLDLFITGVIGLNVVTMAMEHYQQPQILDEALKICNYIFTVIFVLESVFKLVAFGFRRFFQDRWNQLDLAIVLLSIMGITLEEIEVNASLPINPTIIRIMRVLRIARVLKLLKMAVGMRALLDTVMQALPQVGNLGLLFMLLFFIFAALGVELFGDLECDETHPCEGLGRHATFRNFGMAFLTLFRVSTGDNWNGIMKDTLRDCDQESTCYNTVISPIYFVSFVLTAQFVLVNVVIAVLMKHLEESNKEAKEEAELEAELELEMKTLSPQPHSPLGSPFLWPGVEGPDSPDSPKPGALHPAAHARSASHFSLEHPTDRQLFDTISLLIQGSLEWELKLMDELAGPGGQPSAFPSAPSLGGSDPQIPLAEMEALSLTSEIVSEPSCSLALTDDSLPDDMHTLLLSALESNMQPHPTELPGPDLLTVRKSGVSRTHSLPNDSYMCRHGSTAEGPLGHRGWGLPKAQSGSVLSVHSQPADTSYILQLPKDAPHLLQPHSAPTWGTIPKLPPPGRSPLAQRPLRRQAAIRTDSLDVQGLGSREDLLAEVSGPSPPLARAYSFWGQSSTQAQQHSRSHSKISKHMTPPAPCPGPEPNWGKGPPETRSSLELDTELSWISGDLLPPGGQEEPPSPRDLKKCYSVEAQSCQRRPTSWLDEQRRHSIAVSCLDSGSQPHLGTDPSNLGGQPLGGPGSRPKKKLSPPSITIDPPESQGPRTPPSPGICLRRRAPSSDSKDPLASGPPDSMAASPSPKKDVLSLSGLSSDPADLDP

In turn, `CC(C)=CCc1c([C@@H]2CC(=O)c3c(O)cc(O)c(CC=C(C)C)c3O2)cc2c(c1O)OC(C)(C)C=C2` [compound 2, 5,7,3′-trihydroxy-4′,5′-(2⁗,2⁗-dimethylpyran)-8,2′-di(3-methyl-2-butenyl)-(2S)-flavanone] registered an IC50 of 3.5 µM.
